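Five concentrations, 48 hours, 96-well plates. TGI: total growth inhibition.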
What was measured:
Assay in all cases: NCI tumour cell line growth inhibition, 48 h
[1] = system: HOP-62 NSCLC
[2] = system: SK-MEL-5 melanoma
[3] = system: U251 CNS
[4] = system: SK-OV-3 ovarian
[5] = system: NCI-H23 lung
[6] = system: HCC-2998 colon
[7] = system: NCI/ADR-RES ovarian
[8] = system: HCT-116 colon
[9] = system: IGROV1 ovarian
[10] = system: A498 renal
[11] = system: MCF7 breast
[12] = system: SK-MEL-2 melanoma
[13] = system: XF 498 CNS
[14] = system: SF-539 CNS
[15] = system: EKVX NSCLC
[16] = system: NCI-H522 lung
[17] = system: NCI-H460 lung
[18] = system: SN12C renal
[19] = system: SNB-78 CNS
[20] = system: MALME-3M melanoma
[21] = system: CCRF-CEM leukemia
[22] = system: HL-60(TB) leukemia
[23] = system: OVCAR-3 ovarian
[24] = system: HOP-18 NSCLC
[25] = system: KM12 colon
[26] = system: DMS 273 small cell lung
[27] = system: P388/ADR leukemia
[28] = system: MOLT-4 leukemia
[29] = system: OVCAR-4 ovarian
[30] = system: HT29 colon
[31] = system: KM20L2 colon
[32] = system: SN12K1 renal
[33] = system: HCT-15 colon
[34] = system: OVCAR-8 ovarian
[35] = system: SNB-19 CNS
[36] = system: COLO 205 colon
[37] = system: UACC-257 melanoma
[38] = system: RPMI-8226 leukemia
[39] = system: UO-31 renal
[40] = system: CAKI-1 renal
[41] = system: P388 leukemia
[42] = system: SF-295 CNS
[43] = system: K-562 leukemia
[44] = system: DLD-1 colon
[45] = system: SF-268 CNS
[46] = system: HOP-92 NSCLC
[47] = system: OVCAR-5 ovarian
[48] = system: SNB-75 CNS
[49] = system: UACC-62 melanoma
[50] = system: M19-MEL melanoma
[51] = system: NCI-H226 lung
[52] = system: DMS 114 small cell lung
[53] = system: A549 NSCLC
[54] = system: LOX IMVI melanoma
[55] = system: RXF 393 renal
[56] = system: SK-MEL-28 melanoma
[57] = system: SW-620 colon

## O=C(N[C@@H](c1ccccc1)[C@@H](O)C(=O)OCc1ccc2c(c1)OCO2)c1ccccc1
[1]
  TGI: > 100 µM
[2]
  TGI: > 100 µM
[3]
  TGI: > 100 µM
[4]
  TGI: > 100 µM
[5]
  TGI: > 100 µM
[6]
  TGI: > 100 µM
[7]
  TGI: > 100 µM
[8]
  TGI: > 100 µM
[9]
  TGI: > 100 µM
[10]
  TGI: > 100 µM
[11]
  TGI: > 100 µM
[12]
  TGI: > 100 µM
[13]
  TGI: > 100 µM
[14]
  TGI: > 100 µM
[15]
  TGI: > 100 µM
[16]
  TGI: > 100 µM
[17]
  TGI: > 100 µM
[18]
  TGI: > 100 µM
[19]
  TGI: > 100 µM
[20]
  TGI: > 100 µM
[21]
  TGI: > 100 µM
[22]
  TGI: > 100 µM
[23]
  TGI: > 100 µM
[24]
  TGI: > 100 µM
[25]
  TGI: > 100 µM
[26]
  TGI: > 100 µM
[27]
  TGI: > 100 µM
[28]
  TGI: > 100 µM
[29]
  TGI: > 100 µM
[30]
  TGI: > 100 µM
[31]
  TGI: > 100 µM
[32]
  TGI: > 100 µM
[33]
  TGI: > 100 µM
[34]
  TGI: > 100 µM
[35]
  TGI: > 100 µM
[36]
  TGI: > 100 µM
[37]
  TGI: > 100 µM
[38]
  TGI: > 100 µM
[39]
  TGI: > 100 µM
[40]
  TGI: > 100 µM
[41]
  TGI: > 100 µM
[42]
  TGI: > 100 µM
[43]
  TGI: > 100 µM
[44]
  TGI: > 100 µM
[45]
  TGI: > 100 µM
[46]
  TGI: > 100 µM
[47]
  TGI: > 31.6 µM
[48]
  TGI: > 100 µM
[49]
  TGI: > 100 µM
[50]
  TGI: > 100 µM
[51]
  TGI: > 100 µM
[52]
  TGI: > 100 µM
[53]
  TGI: > 100 µM
[54]
  TGI: > 100 µM
[55]
  TGI: > 100 µM
[56]
  TGI: > 100 µM
[57]
  TGI: > 100 µM

— PubChem BioAssay (NCI)
